Experimental data reported in the NIST ThermoML archive (doi:10.1007/s10765-007-0223-x).

Experiment: xn = mol fraction of the nth substance listed
Settings: 101 kPa, Liquid; for speed of sound: Single path-length method

CCc1ccccc1 [ethylbenzene] + COC(C)(C)C
Settings	mass density, 288.15 K [kg/m3]	mass density, 290.65 K [kg/m3]	mass density, 293.15 K [kg/m3]	mass density, 295.65 K [kg/m3]	speed of sound, 288.15 K [m/s]	speed of sound, 290.65 K [m/s]	speed of sound, 293.15 K [m/s]	speed of sound, 295.65 K [m/s]
x2 = 0	871.245	869.052	866.856	864.66	1360.7	1349.9	1339.4	1328.9
x2 = 0.046	866.075	863.868	861.653	859.445	1348.3	1337.6	1326.8	1316.3
x2 = 0.106	859.155	856.925	854.698	852.469	1334.4	1323.4	1312.7	1302
x2 = 0.212	846.925	844.671	842.406	840.144	1307.2	1296.3	1285.5	1274.8
x2 = 0.299	836.536	834.249	831.951	829.658	1284.6	1273.7	1262.8	1252
x2 = 0.402	823.953	821.631	819.3	816.97	1256.7	1245.6	1234.6	1223.7
x2 = 0.503	812.763	810.408	808.048	–	1231.4	1220.2	1209.2	1198.2
x2 = 0.6	799.067	796.665	794.26	–	1201.3	1190.1	1179	1167.8
x2 = 0.701	785.93	783.488	781.04	–	1171.9	1160.5	1149.3	1138.1
x2 = 0.822	769.744	767.243	764.736	–	1136.2	1124.5	1113.2	1101.8
x2 = 0.899	759.058	756.516	753.964	–	1112.7	1100.7	1089.2	1077.7
x2 = 0.948	752.102	749.532	746.956	–	1097.3	1085.4	1073.8	1062.3
